{"source": "patent US11459570B2", "about": "“Transgenic mouse expressing amyloid precursor protein that has olfactory neuron degeneration” (The General Hospital Corporation, priority 2014, dated 2022)", "key": {"[1]": {"tested_on": "neuronal differentiated ReNcell VM cells", "assay": "Viability of differentiated ReNcell VM neurons transfected with poly IC (Celltiter-Glo)", "type": "cell-based, human", "conditions": "escalating doses of poly IC, after 2 days (48 hours) in culture", "experimental": "(§1) FIGS. 12A-G. dsRNA induces a Type I interferon response and is sufficient to induced neurodegeneration in human neurons. A-E) Representative transmitted light images of differentiated ReNVM neurons transfected with increasing doses of PolyIC, a dsRNA mimetic, showing a dose-dependent loss of neurons after 48 hours.\n(§2) Cytoplasmic dsRNA is sensed by three different proteins, PKR, MDA5, and RIG-I, that are components of the innate immune system. Engagement of each protein by dsRNA induces interferon signaling and neurodegeneration. […] To determine if cytoplasmic dsRNA was sufficient to mediate neurodegeneration in a human neurons, we transfected neuronal differentiated ReNcell VM cells, a human neural cell line derived from ventral mesencephalon, with escalating doses of poly IC (which mimics a GC dinucleotide repeat)."}, "OSNs": {"tested_on": "OSNs", "conditions": "mice, intranasal instillation; cited from earlier work"}, "MDA5 and PKR": {"tested_on": "MDA5 and PKR", "assay": "Western blots of type I interferon-stimulated genes in differentiated ReNVM cells after PolyIC transfection", "type": "cell-based, human", "conditions": "western blot, 24 hour post transfection with PolyIC", "experimental": "as §1, §2"}, "cortical neurons": {"tested_on": "cortical neurons", "conditions": "rats; cited from earlier work"}}}
{"substance": "polyinosinic-polycytidylic acid [poly IC]", "values": [{"measurement": "viability of ReNVM neurons relative to mock-transfected neurons", "setting": "[1]", "result": "dose-dependent reduction in their viability"}, {"measurement": "viability of ReNVM neurons relative to mock-transfected neurons", "setting": "[1]; listed as PolyIC", "result": "dose-dependent loss in cell viability"}, {"measurement": "degeneration of OSNs", "setting": "OSNs", "result": "causes degeneration"}, {"measurement": "protein expression of type I interferon-stimulated genes (MDA5, PKR)", "setting": "MDA5 and PKR", "result": "massive induction of MDA5 and PKR"}, {"measurement": "protein expression of type I interferon-stimulated genes (MDA5, PKR)", "setting": "MDA5 and PKR; listed as PolyIC", "result": "elevated protein expression of type I interferon-stimulated genes"}, {"measurement": "degeneration of cortical neurons", "setting": "cortical neurons", "result": "causes degeneration"}]}
